Assay [1] has as its system Aspergillus fumigatus. The assay is described as follows: Antimycotic in-vitro activity, serial dilution test (MIC). It counts as cell-based. The settings on record: Sabouraud's milieu d'epreuve, 28-37 °C, 96 h, inoculum 5 x 10^3 to 10^4 germs/ml, read-out: MHK-Werte in γ/ml Nährmedium, Aspergillus fumigatus. The procedure: (§1) Die in-vitro-Prüfungen wurden im Reihenverdünnungstest mit Keiminokula von durchschnittlich 5 x 10³ bis 10⁴ Keimen/ml Substrat durchgeführt. Als Nähmedium dienten • a) für Dermatophyten und Schimmelpilze: Sabouraud's milieu d'epreuve • b) für Hefen: Fleischextrakt-Traubenzucker-Bouillon.
(§2) Die Bebrütungstemperatur betrug 28 °C bis 37 °C, die Bebrütungsdauer lag bei 24 bis 96 Stunden bei Hefen und 96 Stunden bei Dermatophyten und Schimmelpilzen.

Assay [2] relates to Candida albicans. The assay is described as above. It counts as cell-based. As to conditions: Fleischextrakt-Traubenzucker-Bouillon, 28-37 °C, 24-96 h, inoculum 5 x 10^3 to 10^4 germs/ml, read-out: MHK-Werte in γ/ml Nährmedium, Candida albicans. Here is the method: as §1, §2
Assay [3] has as its system Microsporum canis. Described as above. It counts as cell-based. As to conditions: Sabouraud's milieu d'epreuve, 28-37 °C, 96 h, inoculum 5 x 10^3 to 10^4 germs/ml, read-out: MHK-Werte in γ/ml Nährmedium, Microsporum canis. The procedure: as §1, §2
For assay [4], the system named is Torulopsis glabrata. The assay is described as above. It counts as cell-based. As to conditions: Nakaseomyces glabratus; Fleischextrakt-Traubenzucker-Bouillon; 28-37 °C, 24-96 h; inoculum 5 x 10^3 to 10^4 germs/ml; read-out: MHK-Werte in γ/ml Nährmedium, Torulopsis glabrata. Here is the method: as §1, §2
In assay [5] the test system is Trichophyton mentagr. The assay is described as above. The class given is cell-based. As to conditions: Sabouraud's milieu d'epreuve, 28-37 °C, 96 h, inoculum 5 x 10^3 to 10^4 germs/ml, read-out: MHK-Werte in γ/ml Nährmedium, Trichophyton mentagr. The procedure:
as §1, §2

In assay [6] the test system is Candida-Zellen. The assay is described as follows: Antimycotic in-vivo activity (oral) in mouse candidosis. Also noted: species or system Mäuse vom Typ SPF-CF1. As to conditions: for Wirkung (Überlebende am 6. Tag p.i.): mice infected i.v. with Candida, 25-100 mg/kg oral, 1 h before and 7 h after infection; for Wirkung compared with (A) and (B): mouse candidosis, oral, statement in words. Here is the method: Mäuse vom Typ SPF-CF₁ wurden intravenös mit 1 - 2 x 10⁶ logarithmisch wachsenden Candida-Zellen, die in physiologischer Kochsalzlösung suspendiert werden, infiziert. Eine Stunde vor und sieben Stunden nach der Infektion werden die Tiere mit jeweils 25 - 100 mg/kg Körpergewicht der Präparate oral behandelt.
Unbehandelte Tiere starben 3 bis 6 Tage post infektionem. Die Überlebensrate am 6.Tag post infektionem betrug bei unbehandelten Kontrolltieren etwa 5 %.

≈ marks a conversion by molar mass, not a printed value. Some results are limits rather than exact numbers.

The source of these data is patent EP0258782A2, “Use of 1-(substituted mercapto-hydroxyethyl)-triazoles in the treatment of illnesses” (BAYER AG, priority 1986, dated 1988).

As for `CC(C)(Cc1ccc(F)cc1)C(O)(CSCc1ccc(Cl)cc1)Cn1cncn1` (stereo not drawn) [I-58], the MIC in assay [1] is 8 µg/mL (≈ 18.4 µM); in assay [2], 2 µg/mL (≈ 4.61 µM); in assay [3], 4 µg/mL (≈ 9.22 µM); in assay [4], less than 1 µg/mL; in assay [5] it was less than 1 µg/mL.

For the molecule `CCCSCC(O)(Cn1cncn1)C(C)(C)Cc1ccc(SC(F)(F)F)cc1` (stereo not drawn) [I-60], the MIC in assay [1] was less than 1 µg/mL; in assay [2], 2 µg/mL (≈ 4.61 µM); in assay [3], 2 µg/mL (≈ 4.61 µM); in assay [4], 4 µg/mL (≈ 9.23 µM); in assay [5] it was less than 1 µg/mL.

Consider `CCCCSCC(O)(Cn1cncn1)C(C)(C)Cc1ccc(SC(F)(F)F)cc1` (stereo not drawn) [I-61], for which the MIC was 2 µg/mL (≈ 4.47 µM) in assay [1]; 8 µg/mL (≈ 17.9 µM) in assay [2]; 2 µg/mL (≈ 4.47 µM) in assay [3]; 32 µg/mL (≈ 71.5 µM) in assay [4]; less than 1 µg/mL in assay [5].

For the molecule `CC(C)SCC(O)(Cn1cncn1)C(C)(C)Cc1ccc(SC(F)(F)F)cc1` (stereo not drawn) [I-62], the MIC in assay [1] was 2 µg/mL (≈ 4.61 µM); in assay [2], less than 1 µg/mL; in assay [3] it was less than 1 µg/mL; in assay [4], less than 1 µg/mL; in assay [5], less than 1 µg/mL. Further, the “Wirkung (Überlebende am 6. Tag p.i.)” value in assay [6] is “++ (= schwache Wirkung = 40 % Überlebende am 6.Tag.p.i.)”. Besides, the “Wirkung compared with (A) and (B)” value in assay [6] is listed as “bessere Wirkung”.

In the case of `CC(C)(Cc1ccc(SC(F)(F)F)cc1)C(O)(CS)Cn1cncn1` (stereo not drawn) [I-63], the MIC in assay [1] is less than 1 µg/mL; in assay [2], 2 µg/mL (≈ 5.11 µM); in assay [3], 2 µg/mL (≈ 5.11 µM); in assay [4] it was 16 µg/mL (≈ 40.9 µM); in assay [5] it was less than 1 µg/mL.

With `CCSCC(O)(Cn1cncn1)C(C)(C)Cc1cccc(C)c1` (stereo not drawn) [I-64], the MIC in assay [1] is 4 µg/mL (≈ 12 µM); in assay [2] it was less than 1 µg/mL; in assay [3], 2 µg/mL (≈ 6 µM); in assay [4] it was 4 µg/mL (≈ 12 µM); in assay [5], 2 µg/mL (≈ 6 µM).

On to `Cc1cccc(CC(C)(C)C(O)(CSC(C)C)Cn2cncn2)c1` (stereo not drawn) [I-65], for which the MIC in assay [1] came out at 4 µg/mL (≈ 11.5 µM); in assay [2], 2 µg/mL (≈ 5.75 µM); in assay [3], 4 µg/mL (≈ 11.5 µM); in assay [4], 16 µg/mL (≈ 46 µM); in assay [5] it was 2 µg/mL (≈ 5.75 µM).

Consider `CCCCSCC(O)(Cn1cncn1)C(C)(C)Cc1cccc(C)c1` (stereo not drawn) [I-66], for which the MIC in assay [1] was 4 µg/mL (≈ 11.1 µM); in assay [2], less than 1 µg/mL; in assay [3] it was 4 µg/mL (≈ 11.1 µM); in assay [4], 8 µg/mL (≈ 22.1 µM); in assay [5], 4 µg/mL (≈ 11.1 µM).

As to `CCSCC(O)(Cn1cncn1)C(C)(C)Cc1ccccc1C` (stereo not drawn) [I-67], the MIC in assay [1] is 4 µg/mL (≈ 12 µM); in assay [2], less than 1 µg/mL; in assay [3] it was 2 µg/mL (≈ 6 µM); in assay [4] it was 2 µg/mL (≈ 6 µM); in assay [5] it was less than 1 µg/mL.

Regarding `CCSCC(O)(Cn1cncn1)C(C)(C)COc1ccc(Cl)cc1` (stereo not drawn) [I-68], the MIC in assay [1] was less than 1 µg/mL; in assay [2], less than 1 µg/mL; in assay [3], less than 1 µg/mL; in assay [4], 4 µg/mL (≈ 10.8 µM); in assay [5], less than 1 µg/mL.

In the case of `CCSCC(O)(Cn1cncn1)C(C)(C)COc1ccc(Cl)c(C)c1` (stereo not drawn) [I-69], the MIC in assay [1] is 2 µg/mL (≈ 5.21 µM); in assay [2], less than 1 µg/mL; in assay [3], less than 1 µg/mL; in assay [4] it was 16 µg/mL (≈ 41.7 µM); in assay [5], less than 1 µg/mL.

Regarding `CCCSCC(O)(Cn1cncn1)C(C)(C)COc1ccc(Cl)c(C)c1` (stereo not drawn) [I-70], the MIC in assay [1] is 8 µg/mL (≈ 20.1 µM); in assay [2], less than 1 µg/mL; in assay [3], 2 µg/mL (≈ 5.03 µM); in assay [4], 8 µg/mL (≈ 20.1 µM); in assay [5], less than 1 µg/mL.

With `CC(C)(Oc1ccc(-c2ccccc2)cc1)C(O)(CSc1ccc(Cl)cc1)Cn1cncn1` (stereo not drawn) [I-93], in assay [6], the “Wirkung (Überlebende am 6. Tag p.i.)” value is “+++++ (= sehr gute Wirkung = 90 % Überlebende am 6.Tag.p.i.)”; the “Wirkung compared with (A) and (B)” value was “bessere Wirkung”.

Turning to `Cc1cc(Cl)ccc1OC(C)(C)C(O)(CSc1ccc(Cl)cc1)Cn1cncn1` (stereo not drawn) [I-94], in assay [6], the “Wirkung (Überlebende am 6. Tag p.i.)” value is recorded as “++++ (= gute Wirkung = 80 % Überlebende am 6.Tag.p.i.)”; the “Wirkung compared with (A) and (B)” value is reported as “bessere Wirkung”.
